What was measured:
[1] = tested on: Trypanosoma brucei brucei; test: Antitrypanosomal activity against Trypanosoma brucei brucei Lister 427 bloodstream forms assessed as inhibition of parasite growth at 20 ug/ml by microtiter plate based assay; assay type: functional
[2] = tested on: Trypanosoma brucei brucei; test: Antitrypanosomal activity against Trypanosoma brucei brucei Lister 427 bloodstream forms assessed as inhibition of parasite growth at 100 ug/ml by microtiter plate based assay; assay type: functional
[3] = Cytotoxicity against human WI38 cells assessed as inhibition of cell growth at 20 ug/ml by MTT assay; assay type: cell-based, WI-38
[4] = tested on: Plasmodium falciparum; test: Antiplasmodial activity against Plasmodium falciparum 3D7 assessed as inhibition of parasite viability at 100 ug/ml by parasite lactate dehydrogenase assay; assay type: functional
[5] = Cytotoxicity against human WI38 cells assessed as inhibition of cell growth at 100 ug/ml by MTT assay; assay type: cell-based, WI-38
[6] = tested on: Plasmodium falciparum; test: Antiplasmodial activity against Plasmodium falciparum 3D7 assessed as inhibition of parasite viability at 20 ug/ml by parasite lactate dehydrogenase assay; assay type: functional
[7] = tested on: Plasmodium falciparum; test: Antiplasmodial activity against Plasmodium falciparum 3D7 assessed as reduction in parasite viability by parasite lactate dehydrogenase assay; assay type: functional, organism-based
[8] = tested on: Trypanosoma brucei brucei; test: Antitrypanosomal activity against Trypanosoma brucei brucei Lister 427 bloodstream forms by microtiter plate based assay; assay type: functional, organism-based
[9] = Cytotoxicity against human WI38 cells by MTT assay; assay type: cell-based, WI-38; conditions: Homo sapiens, WI-38; read-out: IC50
[10] = tested on: Plasmodium falciparum; test: Potency index, ratio of IC50 for QN to IC50 for test compound against Plasmodium falciparum 3D7 by parasite lactate dehydrogenase assay; assay type: functional
[11] = Selectivity index, ratio of IC50 against human WI38 cells to IC50 for Plasmodium falciparum 3D7; assay type: toxicity, cell-based, WI-38; conditions: read-out: Ratio IC50
[12] = tested on: Trypanosoma brucei brucei; test: Potency index, ratio of IC50 for QN to IC50 for test compound against Trypanosoma brucei brucei Lister 427 bloodstream forms by microtiter plate based assay; assay type: functional
[13] = in vitro; conditions: human, WI38 cells
Description: Selectivity index, ratio of IC50 against human WI38 cells to IC50 for Trypanosoma brucei brucei Lister 427 bloodstream forms

| IC50 [8] [µM] | SMILES | inhibition at 20 µg/mL [1] [%] | inhibition at 100 µg/mL [2] [%] | inhibition at 20 ug/ml [3] [%] | inhibition at 100 µg/mL [4] [%] | inhibition at 100 ug/ml [5] [%] | inhibition at 20 µg/mL [6] [%] | IC50 [7] [µM] | IC50 [9] [µM] | Ratio IC50 [10] | selectivity ratio [11] | Ratio IC50 [12] | selectivity ratio [13] |
| --- | --- | --- | --- | --- | --- | --- | --- | --- | --- | --- | --- | --- | --- |
| – | CC(=O)O[C@@H]1CC[C@@]2(C)[C@H](CC[C@@H]3[C@@H]2CC[C@]2(C)[C@@H]([C@H](C)CCC(=O)O)CC[C@@H]32)C1 | 15 | 100 | 27 | 100 | 98 | 70 | 59.5 | – | – | – | – | – |
| 16.3 | CC(=O)O[C@@H]1CC[C@]2(C)[C@H]3CC[C@]4(C)[C@@H]([C@H](C)CCC(=O)O)CC[C@H]4[C@@H]3C[C@H](OC(C)=O)[C@@H]2C1 | 81 | 100 | 20 | 97 | 98 | 73 | 32.7 | – | – | – | – | – |
| 5.6 | CC(=O)O[C@@H]1CC[C@@]2(C)[C@@H](C1)[C@@H](OC(C)=O)[C@@H](OC(C)=O)[C@@H]1[C@@H]2CC[C@]2(C)[C@@H]([C@H](C)CCC(=O)O)CC[C@@H]12 | 83 | 100 | 9 | 97 | 96 | 88 | 8.1 | – | – | – | – | – |
| – | CC(=O)O[C@@H]1CC[C@@]2(C)[C@H](CC[C@@H]3[C@@H]2C[C@H](OC(C)=O)[C@]2(C)[C@@H]([C@H](C)CCC(=O)O)CC[C@@H]32)C1 | 36 | 100 | 10 | 100 | 98 | 82 | 30.5 | – | – | – | – | – |
| – | CC(=O)O[C@@H]1CC[C@@]2(C)[C@@H](C1)C[C@@H](OC(C)=O)[C@@H]1[C@@H]2C[C@H](OC(C)=O)[C@]2(C)[C@@H]([C@H](C)CCC(=O)O)CC[C@@H]12 | 15 | 100 | 12 | 100 | 29 | 68 | 22.5 | – | – | – | – | – |
| 0.45 | C=C[C@H]1CN2CC[C@H]1C[C@H]2[C@H](O)c1cc(CC[C@@H](C)[C@H]2CC[C@H]3[C@@H]4[C@H](OC(C)=O)[C@H](OC(C)=O)[C@@H]5C[C@H](OC(C)=O)CC[C@]5(C)[C@H]4CC[C@]23C)nc2ccc(OC)cc12 | – | – | – | – | – | – | 0.056 | 3.76 | 11.3 | 67.2 | 46.8 | 8.3 |
| 1.47 | C=C[C@H]1CN2CC[C@H]1C[C@H]2[C@H](O)c1cc(CC[C@@H](C)[C@H]2CC[C@H]3[C@@H]4CC[C@@H]5C[C@H](OC(C)=O)CC[C@]5(C)[C@H]4C[C@H](OC(C)=O)[C@]23C)nc2ccc(OC)cc12 | – | – | – | – | – | – | 0.197 | 4.41 | 3.2 | 22 | 14.4 | 3 |
| 0.48 | C=C[C@H]1CN2CC[C@H]1C[C@H]2[C@H](O)c1cc(CC[C@@H](C)[C@H]2CC[C@H]3[C@@H]4[C@H](OC(C)=O)C[C@@H]5C[C@H](OC(C)=O)CC[C@]5(C)[C@H]4C[C@H](OC(C)=O)[C@]23C)nc2ccc(OC)cc12 | – | – | – | – | – | – | 0.0435 | 4.47 | 14.6 | 103 | 44.1 | 9.3 |
| 0.65 | C=C[C@H]1CN2CC[C@H]1C[C@H]2[C@H](O)c1cc(CC[C@@H](C)[C@H]2CC[C@H]3[C@@H]4C[C@H](O)[C@@H]5C[C@H](O)CC[C@]5(C)[C@H]4CC[C@]23C)nc2ccc(OC)cc12 | – | – | – | – | – | – | 0.224 | 4.6 | 2.8 | 21 | 32.4 | 7 |
| 0.76 | C=C[C@H]1CN2CC[C@H]1C[C@H]2[C@H](O)c1cc(CC[C@@H](C)[C@H]2CC[C@H]3[C@@H]4[C@H](O)[C@H](O)[C@@H]5C[C@H](O)CC[C@]5(C)[C@H]4CC[C@]23C)nc2ccc(OC)cc12 | – | – | – | – | – | – | 0.275 | 5.55 | 2.3 | 20 | 27.8 | 7.3 |
| 0.64 | C=C[C@H]1CN2CC[C@H]1C[C@H]2[C@H](O)c1cc(CC[C@@H](C)[C@H]2CC[C@H]3[C@@H]4CC[C@@H]5C[C@H](O)CC[C@]5(C)[C@H]4C[C@H](O)[C@]23C)nc2ccc(OC)cc12 | – | – | – | – | – | – | 0.241 | 5.2 | 2.6 | 22 | 33.3 | 8.2 |

| SMILES | IC50 [8] [µM] | inhibition at 20 µg/mL [1] [%] | inhibition at 100 µg/mL [2] [%] | inhibition at 20 ug/ml [3] [%] | inhibition at 100 µg/mL [4] [%] | inhibition at 100 ug/ml [5] [%] | inhibition at 20 µg/mL [6] [%] | IC50 [7] [µM] | IC50 [9] [µM] | Ratio IC50 [10] | selectivity ratio [11] | Ratio IC50 [12] | selectivity ratio [13] |
| --- | --- | --- | --- | --- | --- | --- | --- | --- | --- | --- | --- | --- | --- |
| CC(=O)O[C@@H]1CC[C@@]2(C)[C@@H](C1)C[C@@H](OC(C)=O)[C@@H]1[C@@H]2CC[C@]2(C)[C@@H]([C@H](C)CCC(=O)O)CC[C@@H]12 | 12.5 | 99 | 100 | 57 | 90 | 98 | 59 | 21 | 16.8 | – | – | – | – |

Source: ChEMBL document CHEMBL3588788, “Structure-activity relationship of hybrids of Cinchona alkaloids and bile acids with in vitro antiplasmodial and antitrypanosomal activities” (Eur J Med Chem, 2015)
